The source of these data is US8940742B2, “Heterocyclic compounds and uses thereof” (Infinity Pharmaceuticals, Inc., priority 2012, dated 2015).

One data set deals with RAJI p110 δ (Homo sapiens, UniProt O00329). The data set is described as follows: RAJI p110 δ cellular assay (phospho-AKT).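 Also: potency based on lowered phosphorylated AKT in RAJI cells, as a readout of PI3K-δ dependent B-cell receptor signaling.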
The target of a further data set is T1, PI3K γ (Homo sapiens, UniProt P48736).
T1 construct: purchased Millipore
The data set is described as follows: PI3-Kinase Promega ADP-Glo Max assay. Format: biochemical. Particulars: 40 nM kinase, 3 mM ATP, 500 uM diC8-PtdInsP. The gist of the method: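 Human class I PI3K reactions ran 2 hours at room temperature, followed by stop solution (40 min) and detection mix (1 hour) before luminescence reading.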

The next data set concerns the target T2, Raw264.7 p110 γ (Mus musculus, UniProt Q9JHG7).
T2 construct: reduction of phospho-AKT in stimulated RAW 264.7 cells; endogenous in cells; host or cells: RAW264.7 macrophages
The data set is described as follows: Raw264.7 p110 γ cellular assay (phospho-AKT). It counts as cell-based. Particulars: serum-starved RAW264.7 cells stimulated with C5a. The source says: (b) PI3K-γ Selective Assay
Briefly, serum-starved PAW264.7 cells are stimulated with a known GPCR agonist C5a. […] Cells can be treated with test compounds prior to, simultaneously with, or subsequent to the stimulation by C5a. RAW 264.7 cells respond to the complement component fragment C5a through activation of the C5a receptor, and the C5a receptor activates macrophages and induces cell migration.

The next data set deals with T3, PI3K β (Homo sapiens, UniProt P42338).
T3 construct: purchased Millipore
The data set is described as follows: PI3-Kinase Promega ADP-Glo Max assay. The note with it: 40 nM kinase, 3 mM ATP, 500 uM diC8-PtdInsP. It counts as biochemical. In outline:
(§1)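 Human class I PI3K (20 nM α or δ, 40 nM β) pre-incubated 15 min with compound in HEPES pH 7.4 buffer with MgCl2, then reacted 2 h at room temperature with 3 mM ATP and 500 uM diC8-PtdInsP. ADP measured by ADP-Glo Max luminescence; % inhibition fitted to 4-parameter logistic for IC50.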
(In general: ADP-Glo first removes unused ATP, then detects ADP through luciferase.)

For the next data set, the target named is T4, PI3K α (Homo sapiens, UniProt P42336).
T4 construct: purchased Millipore
Nature of the data set: PI3-Kinase Promega ADP-Glo Max assay. Format: biochemical. Particulars: 20 nM kinase, 3 mM ATP, 500 uM diC8-PtdInsP. The gist of the method: as §1

The next data set addresses T5, PI3K δ (Homo sapiens, UniProt O00329).
T5 construct: purchased Millipore
The data set is described as follows: PI3-Kinase Promega ADP-Glo Max assay. Format: biochemical. Particulars: 20 nM kinase, 3 mM ATP, 500 uM diC8-PtdInsP. The gist of the method: as §1

The conditions of data set [1]: reference compound, 5 μM; cited from earlier work.

Broadly, the IC50 is the concentration that inhibits the measured activity by half.

T3 sequence (P42338 whole entry): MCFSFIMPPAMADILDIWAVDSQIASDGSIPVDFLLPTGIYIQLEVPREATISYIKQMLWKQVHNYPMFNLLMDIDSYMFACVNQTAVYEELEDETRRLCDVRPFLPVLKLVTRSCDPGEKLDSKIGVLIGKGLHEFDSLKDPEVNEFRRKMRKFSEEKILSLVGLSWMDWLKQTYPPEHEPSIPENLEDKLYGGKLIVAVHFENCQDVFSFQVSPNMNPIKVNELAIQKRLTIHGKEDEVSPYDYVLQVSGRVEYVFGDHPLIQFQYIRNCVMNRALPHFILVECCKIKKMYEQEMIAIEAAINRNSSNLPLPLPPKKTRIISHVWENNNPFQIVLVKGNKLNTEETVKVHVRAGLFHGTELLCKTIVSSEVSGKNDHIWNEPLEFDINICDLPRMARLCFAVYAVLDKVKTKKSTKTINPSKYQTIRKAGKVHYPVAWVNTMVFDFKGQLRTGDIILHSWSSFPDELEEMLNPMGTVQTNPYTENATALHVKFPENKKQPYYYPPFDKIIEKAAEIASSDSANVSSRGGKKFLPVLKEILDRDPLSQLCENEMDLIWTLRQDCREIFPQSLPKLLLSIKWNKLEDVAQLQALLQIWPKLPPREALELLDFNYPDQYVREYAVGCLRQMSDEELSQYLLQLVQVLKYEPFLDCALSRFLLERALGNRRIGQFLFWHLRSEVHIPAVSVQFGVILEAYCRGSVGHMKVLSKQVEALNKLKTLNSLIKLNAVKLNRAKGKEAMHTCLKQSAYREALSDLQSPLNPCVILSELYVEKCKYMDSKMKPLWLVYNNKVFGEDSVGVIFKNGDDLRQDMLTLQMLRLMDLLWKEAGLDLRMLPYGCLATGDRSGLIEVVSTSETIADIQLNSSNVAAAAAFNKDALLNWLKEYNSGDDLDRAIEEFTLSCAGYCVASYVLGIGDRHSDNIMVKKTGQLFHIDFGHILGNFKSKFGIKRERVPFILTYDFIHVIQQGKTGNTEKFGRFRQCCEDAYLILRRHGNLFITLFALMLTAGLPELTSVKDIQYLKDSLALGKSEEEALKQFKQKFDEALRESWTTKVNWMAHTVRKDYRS
T3 sequence (P27986 whole entry partner): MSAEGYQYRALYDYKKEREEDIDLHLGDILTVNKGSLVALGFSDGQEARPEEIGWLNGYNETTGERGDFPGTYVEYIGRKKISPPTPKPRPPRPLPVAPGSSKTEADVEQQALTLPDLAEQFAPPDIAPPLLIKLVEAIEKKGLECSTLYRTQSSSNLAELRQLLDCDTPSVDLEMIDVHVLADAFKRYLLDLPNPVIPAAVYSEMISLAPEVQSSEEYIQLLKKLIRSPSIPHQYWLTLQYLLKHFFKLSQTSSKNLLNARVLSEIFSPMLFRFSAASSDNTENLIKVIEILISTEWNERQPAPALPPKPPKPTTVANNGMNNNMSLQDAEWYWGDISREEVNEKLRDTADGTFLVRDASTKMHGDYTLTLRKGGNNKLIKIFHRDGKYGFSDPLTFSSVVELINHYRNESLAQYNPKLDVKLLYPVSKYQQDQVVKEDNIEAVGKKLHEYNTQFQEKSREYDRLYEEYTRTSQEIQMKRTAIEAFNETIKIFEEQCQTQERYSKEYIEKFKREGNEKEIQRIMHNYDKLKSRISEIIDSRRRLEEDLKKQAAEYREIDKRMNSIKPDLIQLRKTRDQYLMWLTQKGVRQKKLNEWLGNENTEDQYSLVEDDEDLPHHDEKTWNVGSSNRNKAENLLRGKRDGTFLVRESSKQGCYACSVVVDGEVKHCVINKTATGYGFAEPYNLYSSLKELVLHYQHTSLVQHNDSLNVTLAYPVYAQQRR
T2 sequence (Q9JHG7 whole entry): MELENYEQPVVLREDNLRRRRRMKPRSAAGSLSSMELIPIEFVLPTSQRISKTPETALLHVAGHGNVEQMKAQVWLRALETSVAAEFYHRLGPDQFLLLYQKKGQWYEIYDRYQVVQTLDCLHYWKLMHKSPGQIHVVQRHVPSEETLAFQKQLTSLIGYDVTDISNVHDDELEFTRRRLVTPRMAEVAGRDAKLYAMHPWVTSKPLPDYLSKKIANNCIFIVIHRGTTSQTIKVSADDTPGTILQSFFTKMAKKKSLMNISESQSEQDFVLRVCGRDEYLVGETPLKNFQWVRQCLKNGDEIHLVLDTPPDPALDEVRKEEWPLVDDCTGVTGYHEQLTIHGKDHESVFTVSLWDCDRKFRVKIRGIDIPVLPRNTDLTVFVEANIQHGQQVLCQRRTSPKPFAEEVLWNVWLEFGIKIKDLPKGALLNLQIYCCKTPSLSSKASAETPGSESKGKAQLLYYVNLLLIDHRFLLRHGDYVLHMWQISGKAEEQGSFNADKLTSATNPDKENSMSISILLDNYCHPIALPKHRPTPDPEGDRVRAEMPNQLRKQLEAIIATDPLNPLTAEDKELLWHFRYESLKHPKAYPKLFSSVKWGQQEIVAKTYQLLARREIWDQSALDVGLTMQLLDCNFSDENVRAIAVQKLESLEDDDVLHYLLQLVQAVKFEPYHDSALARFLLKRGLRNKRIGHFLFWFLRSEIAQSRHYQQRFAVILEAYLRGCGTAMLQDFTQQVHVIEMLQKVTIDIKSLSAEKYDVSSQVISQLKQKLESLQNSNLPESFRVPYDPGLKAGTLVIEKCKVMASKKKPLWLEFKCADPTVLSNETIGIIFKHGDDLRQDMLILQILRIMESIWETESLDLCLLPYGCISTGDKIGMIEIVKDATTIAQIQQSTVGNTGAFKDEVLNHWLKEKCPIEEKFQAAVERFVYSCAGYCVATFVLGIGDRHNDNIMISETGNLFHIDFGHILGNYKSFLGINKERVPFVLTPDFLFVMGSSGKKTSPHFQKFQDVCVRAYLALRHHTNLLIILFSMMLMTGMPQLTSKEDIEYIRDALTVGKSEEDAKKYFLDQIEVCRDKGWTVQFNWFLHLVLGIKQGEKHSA
T1 sequence (P48736 whole entry): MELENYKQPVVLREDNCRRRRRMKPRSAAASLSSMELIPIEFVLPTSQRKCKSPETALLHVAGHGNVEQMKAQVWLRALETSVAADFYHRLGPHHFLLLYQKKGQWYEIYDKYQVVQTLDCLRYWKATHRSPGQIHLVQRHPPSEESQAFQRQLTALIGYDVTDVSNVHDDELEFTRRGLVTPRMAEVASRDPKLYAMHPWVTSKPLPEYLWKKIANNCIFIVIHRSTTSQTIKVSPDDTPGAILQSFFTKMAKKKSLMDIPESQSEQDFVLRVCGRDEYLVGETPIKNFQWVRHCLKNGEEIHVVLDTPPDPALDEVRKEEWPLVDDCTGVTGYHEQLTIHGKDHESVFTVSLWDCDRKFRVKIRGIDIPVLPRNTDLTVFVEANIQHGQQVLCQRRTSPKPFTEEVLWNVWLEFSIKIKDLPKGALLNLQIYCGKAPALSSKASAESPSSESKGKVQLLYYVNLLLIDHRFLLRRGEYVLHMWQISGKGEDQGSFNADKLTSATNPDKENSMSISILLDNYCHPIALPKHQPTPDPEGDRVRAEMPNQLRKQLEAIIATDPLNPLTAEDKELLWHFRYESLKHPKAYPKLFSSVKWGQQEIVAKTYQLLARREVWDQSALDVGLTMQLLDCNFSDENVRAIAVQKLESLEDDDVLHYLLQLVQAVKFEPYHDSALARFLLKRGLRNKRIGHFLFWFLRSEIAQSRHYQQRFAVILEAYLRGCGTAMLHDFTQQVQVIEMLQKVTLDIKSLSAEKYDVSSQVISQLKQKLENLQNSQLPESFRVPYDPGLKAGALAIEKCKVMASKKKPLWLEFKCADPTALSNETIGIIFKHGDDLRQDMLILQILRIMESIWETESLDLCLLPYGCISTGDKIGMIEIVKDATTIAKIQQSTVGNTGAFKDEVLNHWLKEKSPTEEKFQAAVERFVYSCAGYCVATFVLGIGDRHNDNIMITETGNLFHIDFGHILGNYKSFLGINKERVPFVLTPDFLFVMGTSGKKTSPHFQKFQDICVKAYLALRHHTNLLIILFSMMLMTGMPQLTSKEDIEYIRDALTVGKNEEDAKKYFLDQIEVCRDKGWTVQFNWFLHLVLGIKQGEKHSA
T5 sequence (O00329 whole entry): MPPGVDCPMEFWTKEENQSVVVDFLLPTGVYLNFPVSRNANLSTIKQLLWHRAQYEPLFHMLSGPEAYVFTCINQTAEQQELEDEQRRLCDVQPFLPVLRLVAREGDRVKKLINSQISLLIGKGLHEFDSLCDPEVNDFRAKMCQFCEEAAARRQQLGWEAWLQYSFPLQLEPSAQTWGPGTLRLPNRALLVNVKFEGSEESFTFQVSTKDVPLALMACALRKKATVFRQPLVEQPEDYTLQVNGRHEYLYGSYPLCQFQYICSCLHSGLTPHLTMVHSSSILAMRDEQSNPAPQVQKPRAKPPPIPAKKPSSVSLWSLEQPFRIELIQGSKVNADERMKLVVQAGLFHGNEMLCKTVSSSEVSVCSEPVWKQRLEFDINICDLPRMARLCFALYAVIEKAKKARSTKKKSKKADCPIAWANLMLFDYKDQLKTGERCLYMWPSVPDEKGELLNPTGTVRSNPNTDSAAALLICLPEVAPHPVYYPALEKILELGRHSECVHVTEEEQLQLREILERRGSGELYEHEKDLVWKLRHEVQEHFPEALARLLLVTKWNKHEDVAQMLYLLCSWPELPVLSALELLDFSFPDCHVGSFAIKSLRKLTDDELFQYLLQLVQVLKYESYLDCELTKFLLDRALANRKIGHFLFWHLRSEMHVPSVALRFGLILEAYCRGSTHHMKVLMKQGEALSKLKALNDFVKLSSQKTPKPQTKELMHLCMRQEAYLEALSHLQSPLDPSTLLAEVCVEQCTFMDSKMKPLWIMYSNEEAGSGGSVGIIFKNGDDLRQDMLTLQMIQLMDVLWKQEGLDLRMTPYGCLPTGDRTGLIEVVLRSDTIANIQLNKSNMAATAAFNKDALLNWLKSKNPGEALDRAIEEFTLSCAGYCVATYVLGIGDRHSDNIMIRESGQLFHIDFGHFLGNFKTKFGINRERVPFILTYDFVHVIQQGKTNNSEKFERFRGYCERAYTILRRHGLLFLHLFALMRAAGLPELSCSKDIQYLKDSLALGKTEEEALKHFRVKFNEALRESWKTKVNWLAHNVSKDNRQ
T5 sequence (P27986 whole entry partner): as the sequence (P27986 whole entry partner) above
Text for RAJI p110 δ: (a) PI3K-δ Selective Assay
Reduction of phospho-AKT is indicative of compounds that may inhibit B-cell proliferation and function in certain diseases.

For the molecule `C[C@H](NC(=O)c1c(N)nn2cccnc12)c1cc2cccc(-c3ccn[nH]3)c2c(=O)n1-c1ccccc1` [Compound 221], the IC50 against RAJI p110 δ is 0.1 to 1 µM; at PI3K γ, 0.1 to 1 µM; on Raw264.7 p110 γ it was less than 0.1 µM; against PI3K β it was more than 10 µM; on PI3K α it was 1 to 10 µM; against PI3K δ, 1 to 10 µM.
With `C[C@H](NC(=O)c1c(N)nn2cccnc12)c1cc2cccc(-c3cnn(C)c3)c2c(=O)n1-c1ccccc1` [Compound 222], the half-inhibitory concentration (IC50) at RAJI p110 δ was less than 0.1 µM; against PI3K γ it was 0.1 to 1 µM; on Raw264.7 p110 γ, less than 0.1 µM; on PI3K β it was more than 10 µM; at PI3K α, more than 10 µM; on PI3K δ, 1 to 10 µM.
As for `COc1ccc(-c2cccc3cc([C@H](C)NC(=O)c4c(N)nn5cccnc45)n(-c4ccccc4)c(=O)c23)cn1` [Compound 223], the IC50 is less than 0.1 µM on RAJI p110 δ; 0.1 to 1 µM on PI3K γ; less than 0.1 µM on Raw264.7 p110 γ; more than 10 µM against PI3K β; more than 10 µM at PI3K α; 1 to 10 µM against PI3K δ.
Turning to `C[C@H](NC(=O)c1c(N)nn2cccnc12)c1cc2sccc2c(=O)n1-c1ccccc1` [Compound 225], the IC50 was 0.1 to 1 µM on RAJI p110 δ; 1 to 10 µM on PI3K γ; 0.1 to 1 µM against Raw264.7 p110 γ; 1 to 10 µM against PI3K β; more than 10 µM against PI3K α; 1 to 10 µM on PI3K δ.
As to `C[C@H](NC(=O)c1c(N)nn2cccnc12)c1cc2cccc(C#N)c2c(=O)n1-c1ccccc1` [Compound 227], the half-inhibitory concentration (IC50) against RAJI p110 δ is less than 0.1 µM; against PI3K γ it was 0.1 to 1 µM; at Raw264.7 p110 γ, less than 0.1 µM; at PI3K β, 1 to 10 µM; at PI3K α, more than 10 µM; at PI3K δ, 1 to 10 µM.
For `C[C@H](NC(=O)c1c(N)nn2cccnc12)c1cc2cccc(CO)c2c(=O)n1-c1ccccc1` [Compound 228], the IC50 at RAJI p110 δ is 0.1 to 1 µM; against PI3K γ it was 0.1 to 1 µM; on Raw264.7 p110 γ, less than 0.1 µM; at PI3K β it was 1 to 10 µM; against PI3K α it was more than 10 µM; at PI3K δ, 1 to 10 µM.
`C=CCn1c([C@H](C)NC(=O)c2c(N)nn3cccnc23)cc2cccc(Cl)c2c1=O` [Compound 235]: the concentration for half-maximal inhibition (IC50) on RAJI p110 δ is less than 0.1 µM; against PI3K γ, 0.1 to 1 µM; against Raw264.7 p110 γ it was less than 0.1 µM; against PI3K β it was less than 0.1 µM; on PI3K α it was 1 to 10 µM; against PI3K δ, 0.1 to 1 µM.
Consider `C[C@H](NC(=O)c1c(N)nn2cccnc12)c1cc2cccc(Cl)c2c(=O)n1CC(O)CO` (some centres unmarked) [Compound 238], for which the half-inhibitory concentration (IC50) at RAJI p110 δ was less than 0.1 µM; against PI3K γ it was 0.1 to 1 µM; at Raw264.7 p110 γ, less than 0.1 µM; against PI3K β it was less than 0.1 µM; against PI3K α, 1 to 10 µM; against PI3K δ it was 0.1 to 1 µM.
On to `C[C@H](NC(=O)c1c(N)nn2cccnc12)c1cc2cccc(Cl)c2c(=O)n1CCN(C)C` [Compound 242], for which the IC50 was less than 0.1 µM at RAJI p110 δ; 1 to 10 µM on PI3K γ; 0.1 to 1 µM on Raw264.7 p110 γ; less than 0.1 µM against PI3K β; more than 10 µM against PI3K α; less than 0.1 µM at PI3K δ.
Take `C[C@H](NC(=O)c1c(N)nn2cccnc12)c1cc2cccc(-c3cncs3)c2c(=O)n1-c1ccccc1` [Compound 245]: the IC50 against RAJI p110 δ is less than 0.1 µM; against PI3K γ, 0.1 to 1 µM; against Raw264.7 p110 γ, less than 0.1 µM; on PI3K β, more than 10 µM; against PI3K α, 1 to 10 µM; at PI3K δ, 1 to 10 µM.
For `CC[C@H](NC(=O)c1c(N)nn2cccnc12)c1cc2cccc(Cl)c2c(=O)n1-c1ccccc1` [Compound 250], the half-inhibitory concentration (IC50) on RAJI p110 δ was less than 0.1 µM; on PI3K γ it was 0.1 to 1 µM; at Raw264.7 p110 γ, less than 0.1 µM; against PI3K β it was less than 0.1 µM; against PI3K α it was 1 to 10 µM; against PI3K δ it was less than 0.1 µM.
Consider `C[C@H](NC(=O)c1c(N)nn2cccnc12)c1c(Br)c2cccc(Cl)c2c(=O)n1-c1ccccc1` [Compound 254], for which the IC50 against RAJI p110 δ is less than 0.1 µM; at PI3K γ, less than 0.1 µM; at Raw264.7 p110 γ it was less than 0.1 µM; at PI3K β it was 1 to 10 µM; on PI3K α, 1 to 10 µM; on PI3K δ, 0.1 to 1 µM.
Regarding `Cc1c([C@H](C)NC(=O)c2c(N)nn3cccnc23)n(-c2ccccc2)c(=O)c2c(F)cccc12` [Compound 260], the 50% inhibitory concentration (IC50) on RAJI p110 δ was less than 0.1 µM; against PI3K γ, less than 0.1 µM; at Raw264.7 p110 γ it was less than 0.1 µM; on PI3K β, 0.1 to 1 µM; against PI3K α it was 1 to 10 µM; against PI3K δ, 0.1 to 1 µM.
Regarding `CNc1cccc2cc([C@H](C)NC(=O)c3c(N)nn4cccnc34)n(-c3ccccc3)c(=O)c12` [Compound 266], the IC50 against RAJI p110 δ is 0.1 to 1 µM; at PI3K γ, 1 to 10 µM; against Raw264.7 p110 γ, less than 0.1 µM; against PI3K β, more than 10 µM; against PI3K α it was 1 to 10 µM; against PI3K δ, more than 10 µM.
On to `C[C@H](NC(=O)c1c(N)nn2cccnc12)c1cc2cccc(NCC(F)(F)F)c2c(=O)n1-c1ccccc1` [Compound 267], for which the IC50 was 0.1 to 1 µM on RAJI p110 δ; 1 to 10 µM against PI3K γ; 0.1 to 1 µM against Raw264.7 p110 γ; more than 10 µM on PI3K β; more than 10 µM on PI3K α; more than 10 µM at PI3K δ.
Take `C[C@H](NC(=O)c1c(N)nn2cccnc12)c1c(C#N)c2cccc(F)c2c(=O)n1-c1ccccc1` [Compound 269]: the half-inhibitory concentration (IC50) is less than 0.1 µM against RAJI p110 δ; 0.1 to 1 µM on PI3K γ; less than 0.1 µM at Raw264.7 p110 γ; 0.1 to 1 µM against PI3K β; 1 to 10 µM on PI3K α; 0.1 to 1 µM at PI3K δ.
As to `COc1cccc2cc([C@H](C)NC(=O)c3c(N)nn4cccnc34)n(-c3ccccc3)c(=O)c12` [Compound 270], the IC50 is 0.1 to 1 µM at RAJI p110 δ; 1 to 10 µM against PI3K γ; 0.1 to 1 µM at Raw264.7 p110 γ; more than 10 µM at PI3K β; more than 10 µM against PI3K α; 1 to 10 µM on PI3K δ.
With `C[C@H](NC(=O)c1c(N)nn2cccnc12)c1cc2cccc(-c3cccs3)c2c(=O)n1-c1ccccc1` [Compound 271], the 50% inhibitory concentration (IC50) at RAJI p110 δ is 0.1 to 1 µM; on PI3K γ, 0.1 to 1 µM; on Raw264.7 p110 γ, less than 0.1 µM; on PI3K β, 1 to 10 µM; against PI3K α it was 1 to 10 µM; against PI3K δ, 1 to 10 µM.
For the molecule `C[C@H](NC(=O)c1c(N)nn2cccnc12)c1cc2cccc(Cl)c2c(=O)n1CCN(C)S(C)(=O)=O` [Compound 273], the half-inhibitory concentration (IC50) against RAJI p110 δ is less than 0.1 µM; at PI3K γ, less than 0.1 µM; against Raw264.7 p110 γ, less than 0.1 µM; against PI3K β, 0.1 to 1 µM; on PI3K α it was 0.1 to 1 µM; against PI3K δ, 0.1 to 1 µM.
As to `C#Cc1cccc2cc([C@H](C)NC(=O)c3c(N)nn4cccnc34)n(-c3ccccc3)c(=O)c12` [Compound 276], the IC50 at RAJI p110 δ is less than 0.1 µM; against PI3K γ, less than 0.1 µM; against Raw264.7 p110 γ it was less than 0.1 µM; against PI3K β, 0.1 to 1 µM; at PI3K α, 0.1 to 1 µM; on PI3K δ it was 0.1 to 1 µM.
Take `CC(C)[N+](C)(CCOC(=O)C1c2ccccc2Oc2ccccc21)C(C)C` [propantheline]: the plasma stability entry in data set [1] was “intermediate plasma stability”.
As to `CCCOc1cc(N)ccc1C(=O)OCCN(CC)CC` [propoxycaine], the plasma stability entry in data set [1] is recorded as “low plasma stability”.
